Among the data in patent US7135475B2, “Amide substituted xanthine derivatives” (Hoffmann-La Roche Inc., priority 2002, dated 2006) are IC50 values, retold here.

The experiment concerns the target T1, recombinant human cytosolic PEPCK (Homo sapiens, UniProt P35558).
T1 sequence (P35558 1-622): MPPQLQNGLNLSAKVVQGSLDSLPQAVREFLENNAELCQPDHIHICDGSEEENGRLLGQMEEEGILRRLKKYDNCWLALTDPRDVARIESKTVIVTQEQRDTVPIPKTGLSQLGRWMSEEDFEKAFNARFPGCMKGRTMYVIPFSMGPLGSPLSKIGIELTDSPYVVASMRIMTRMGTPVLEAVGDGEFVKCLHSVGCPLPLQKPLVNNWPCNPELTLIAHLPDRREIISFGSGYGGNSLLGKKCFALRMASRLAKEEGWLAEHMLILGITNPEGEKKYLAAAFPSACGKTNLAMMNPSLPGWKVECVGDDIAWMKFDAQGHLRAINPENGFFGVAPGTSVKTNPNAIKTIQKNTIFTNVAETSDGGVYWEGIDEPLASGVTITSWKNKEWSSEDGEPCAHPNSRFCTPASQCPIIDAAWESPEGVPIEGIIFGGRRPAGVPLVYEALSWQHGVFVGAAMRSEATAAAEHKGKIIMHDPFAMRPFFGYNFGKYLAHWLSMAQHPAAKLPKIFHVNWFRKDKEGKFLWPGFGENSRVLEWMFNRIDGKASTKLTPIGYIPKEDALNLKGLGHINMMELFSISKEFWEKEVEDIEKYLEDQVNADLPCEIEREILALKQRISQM
The experiment can be described thus: PEPCK enzyme assay (coupled pyruvate kinase/lactate dehydrogenase, absorbance at 340). The conditions noted are these: recombinant human cytosolic GST-PEPCK; GTP and OAA at 3 fold and 10 fold Km; final DMSO 10%; room temperature, twenty minutes; read-out: In vitro IC50. The class given is biochemical. Here is the method: E. coli cells expressing GST-PEPCK were suspended in 5 volumes of lysis buffer (50 mM Tris-hydroxymethyl aminomethyl (TRIS), 150 mM sodium chloride (NaCl), 10 mM ethylene-diametetraacetic acid (EDTA), 5 mM dithiothreitol(DTT), 1% Nonidet P-40, pH 7.4) in the presence of protease inhibitors, incubated with lysozyme at 200 micrograms/ml for 30 min. at room temperature, and sonicated 4×30 seconds at 4 degrees C. After centrifugation at 12,000×g for 20 min. to remove insoluble material, the supernatant was loaded onto glutathione Sepharose (Pharmacia), washed with lysis buffer followed by washing with lysis buffer in the absence of NP-40. GST-PEPCK was eluted with the same buffer containing 20 mM glutathione. The eluted protein was concentrated and dialyzed against 25 mM Hepes(N-[2-hydroxyethyl]piperazine-N′[2-ethanesulfonic acid), 150 mM NaCl, 2.5 mM EDTA, 5 mM DTT, 30% glycerol, pH 7.4, and stored at −20 ° C.
The inhibitory effect of the compounds of the present invention on PEPCK enzymatic activity was determined using recombinant human cytosolic PEPCK, expressed and purified from E.coli as a GST-fusion. Guanosine triphosphate (GTP) and manganese dependent PEPCK enzyme activity catalyzed the decarboxylation of oxalacetate leading to the formation of guanosine diphosphate (GDP) and phosphoenol pyruvate (PEP). This reaction is coupled to pyruvate kinase and lactate dehydrogenase catalyzed reactions and the overall reaction rate determined by measuring the change in absorbance at 340 nm (Chang, H. C. and Lane M. D., J. Biol.Chem. 241:2413–2420, 1966). The following modifications were made to the protocol: 2.5 μg of recombinant, human cytosolic glutathione-S-transferase (GST)-PEPCK was added to a reaction mixture at room temperature which contained 0.3 mM GTP, 0.3 mM oxaloacetate (OAA), 3 mM magnesium chloride (MgCl2), 0.075 mM manganese chloride (MnCl2), 30 mM potassium phosphates (KPO4), pH 7.6, 1 mM dithiothreitol (DTT), 0.2 mM adenosine diphosphate (ADP), 1 mM nicotinamide adenine dinucleotide, reduced form (NADH), 0.9 Units/ml each of pyruvate kinase and lactate dehydrogenase and 1 mg/ml bovine serum albumin (BSA). Test compounds were added such that final concentration of DMSO was 10%. Reactions were run for twenty minutes.
Km values for GTP and OAA were determined according to Michelis-Menton conditions as described in Cornish-Bowden (Fundamentals of Enzyme Kinetics, 1995) in essentially the coupled assay conditions described above. […] Test compounds were added to reactions over a range of concentrations and IC50's were calculated from plots of inhibitor concentration versus enzyme rate. This method of determination of IC50 values is equally applicable to calculations based on PEPCK cellular assay.
The in vitro biological activity of several representative preferred compounds of the present invention in the foregoing PEPCK enzymatic assay is presented in Table 1.

In the case of `CC(C)N(C(=O)Cc1cccnc1)c1ccc(Cc2nc3c([nH]2)c(=O)n(Cc2ccccc2F)c(=O)n3CC2CC2)cc1` [Example 120, N-{4-[3-Cyclopropylmethyl-1-(2-fluorobenzyl)-2,6-dioxo-2,3,6,7-tetrahydro-1H-purin-8-ylmethyl]-phenyl}-N-isopropyl-2-pyridin-3-yl-acetamide], the half-inhibitory concentration (IC50) was 400 nM.

For `CCN(C(=O)c1c(C)nn(C)c1C)c1ccc(Cc2nc3c([nH]2)c(=O)n(Cc2ccccc2F)c(=O)n3CC2CC2)cc1` [Example 117, 1,3,5-Trimethyl-1H-pyrazole-4-carboxylic acid {4-[3-cyclopropylmethyl-1-(2-fluorobenzyl)-2,6-dioxo-2,3,6,7-tetrahydro-1H-purin-8-ylmethyl]-phenyl}-ethyl-amide], the IC50 was 190 nM.

As to `COc1ccc(C(=O)N(C)c2ccc(Cc3nc4c([nH]3)c(=O)n(Cc3ccccc3F)c(=O)n4CC3CC3)cc2)c(OC)n1` [Example 90, N-{4-[3-cyclopropylmethyl-1-(2-fluorobenzyl)-2,6-dioxo-2,3,6,7-tetrahydro-1H-purin-8-ylmethyl]-phenyl}-2,6-dimethoxy-N-methyl-nicotinamide], the IC50 was 340 nM.

For `CN(C(=O)c1csnn1)c1ccc(Cc2nc3c([nH]2)c(=O)n(Cc2ccccc2F)c(=O)n3CC2CC2)cc1` [Example 111, [1,2,3]Thiadiazole-4-carboxylic acid {4-[3-cyclopropylmethyl-1-(2-fluorobenzyl)-2,6-dioxo-2,3,6,7-tetrahydro-1H-purin-8-ylmethyl]-phenyl}-methyl-amide], the half-maximal inhibitory concentration (IC50) stood at 660 nM.

`CC(=O)Nc1cccc(C(=O)N(C)c2ccc(Cc3nc4c([nH]3)c(=O)n(Cc3ccccc3F)c(=O)n4CC3CC3)cc2)n1` [Example 79, 6-Acetylamino-pyridine-2-carboxylic acid {4-[3-cyclopropylmethyl-1-(2-fluorobenzyl)-2,6-dioxo-2,3,6,7-tetrahydro-1H-purin-8-ylmethyl]-phenyl}-methyl-amide]: the concentration for half-maximal inhibition (IC50) was 560 nM.

Turning to `Cc1cncc(C(=O)N(C)c2ccc(Cc3nc4c([nH]3)c(=O)n(Cc3ccccc3F)c(=O)n4CC3CC3)cc2)c1` [Example 85, N-{4-[3-cyclopropylmethyl-1-(2-fluorobenzyl)-2,6-dioxo-2,3,6,7-tetrahydro-1H-purin-8-ylmethyl]-phenyl}-5,N-dimethyl-nicotinamide], the half-maximal inhibitory concentration (IC50) worked out at 400 nM.

On to `CC(=O)Nc1ccc(Cc2nc3c([nH]2)c(=O)n(Cc2ccccc2F)c(=O)n3C[C@@H]2C[C@@H]2C(=O)O)cc1` (relative stereo) [Example 47, 2-[8-(4-Acetylamino-benzyl)-1-(2-fluorobenzyl)-2,6-dioxo-1,2,6,7-tetrahydro-purin-3-ylmethyl]-cyclopropanecarboxylic acid], for which the IC50 came to 560 nM.

Consider `Cc1ccc(C(=O)N(C)c2ccc(Cc3nc4c([nH]3)c(=O)n(Cc3ccccc3F)c(=O)n4CC3CC3)cc2)cn1` [Example 86, N-{4-[3-cyclopropylmethyl-1-(2-fluorobenzyl)-2,6-dioxo-2,3,6,7-tetrahydro-1H-purin-8-ylmethyl]-phenyl}-6,N-dimethyl-nicotinamide], for which the half-maximal inhibitory concentration (IC50) stood at 420 nM.

With `CN(C(=O)c1ccc(N)nc1)c1ccc(Cc2nc3c([nH]2)c(=O)n(Cc2ccccc2F)c(=O)n3CC2CC2)cc1` [Example 94, 6-Amino-N-{4-[3-cyclopropylmethyl-1-(2-fluorobenzyl)-2,6-dioxo-2,3,6,7-tetrahydro-1H-purin-8-ylmethyl]-phenyl}-N-methyl-nicotinamide], the IC50 turned out to be 340 nM.

Consider `Cc1noc(C)c1C(=O)N(C)c1ccc(Cc2nc3c([nH]2)c(=O)n(Cc2ccccc2F)c(=O)n3CC2CC2)cc1` [Example 110, 3,5-Dimethyl-isoxazole-4-carboxylic acid {4-[3-cyclopropylmethyl-1-(2-fluorobenzyl)-2,6-dioxo-2,3,6,7-tetrahydro-1H-purin-8-ylmethyl]-phenyl}-methyl-amide], for which the IC50 came to 660 nM.
